Data as given in the NIST ThermoML archive (doi:10.1021/je7000667).
± gives the expanded uncertainty stated by the source.

Experiment: xn = mol fraction of the nth substance listed
Details: Gas, Burnett expansion method

FC(C(F)(F)F)C(F)(F)F [1,1,1,2,3,3,3-heptafluoropropane] + FCF
Details	mass density [kg/m3]
360 K, 221.36 kPa, x2 = 0.5155	8.234 ± 0.009
360 K, 239.67 kPa, x2 = 0.2648	11.408 ± 0.012
360 K, 243.21 kPa, x2 = 0.7809	6.433 ± 0.007
360 K, 303.15 kPa, x2 = 0.5155	11.36 ± 0.01
360 K, 327.36 kPa, x2 = 0.2648	15.74 ± 0.014
360 K, 333.32 kPa, x2 = 0.7809	8.875 ± 0.008
360 K, 414 kPa, x2 = 0.5155	15.673 ± 0.012
360 K, 445.38 kPa, x2 = 0.2648	21.715 ± 0.016
360 K, 455.62 kPa, x2 = 0.7809	12.244 ± 0.01
360 K, 563.21 kPa, x2 = 0.5155	21.622 ± 0.015
360 K, 602.72 kPa, x2 = 0.2648	29.96 ± 0.02
360 K, 620.87 kPa, x2 = 0.7809	16.892 ± 0.012
360 K, 761.94 kPa, x2 = 0.5155	29.83 ± 0.019
360 K, 809.48 kPa, x2 = 0.2648	41.334 ± 0.026
360 K, 842.09 kPa, x2 = 0.7809	23.305 ± 0.016
360 K, 1023.1 kPa, x2 = 0.5155	41.153 ± 0.025
360 K, 1075.4 kPa, x2 = 0.2648	57.027 ± 0.034
360 K, 1134.1 kPa, x2 = 0.7809	32.152 ± 0.021
360 K, 1359.1 kPa, x2 = 0.5155	56.775 ± 0.034
360 K, 1407.1 kPa, x2 = 0.2648	78.678 ± 0.047
360 K, 1513.7 kPa, x2 = 0.7809	44.316 ± 0.028
360 K, 1778.5 kPa, x2 = 0.5155	78.326 ± 0.047
360 K, 1801.2 kPa, x2 = 0.2648	108.549 ± 0.066
360 K, 1995.5 kPa, x2 = 0.7809	61.139 ± 0.038
360 K, 2234.4 kPa, x2 = 0.2648	149.76 ± 0.096
360 K, 2279 kPa, x2 = 0.5155	108.059 ± 0.067
360 K, 2584.7 kPa, x2 = 0.7809	84.349 ± 0.058
360 K, 2647.8 kPa, x2 = 0.2648	206.618 ± 0.12
360 K, 2834.8 kPa, x2 = 0.5155	149.078 ± 0.097
370 K, 180 kPa, x2 = 0.2648	8.265 ± 0.011
370 K, 227.73 kPa, x2 = 0.5155	8.23 ± 0.009
370 K, 246.7 kPa, x2 = 0.2648	11.403 ± 0.012
370 K, 250.16 kPa, x2 = 0.7809	6.429 ± 0.007
370 K, 312.04 kPa, x2 = 0.5155	11.355 ± 0.01
370 K, 337.19 kPa, x2 = 0.2648	15.732 ± 0.013
370 K, 343.02 kPa, x2 = 0.7809	8.87 ± 0.008
370 K, 426.48 kPa, x2 = 0.5155	15.665 ± 0.012
370 K, 459.23 kPa, x2 = 0.2648	21.704 ± 0.016
370 K, 469.2 kPa, x2 = 0.7809	12.238 ± 0.01
370 K, 580.8 kPa, x2 = 0.5155	21.611 ± 0.015
370 K, 622.4 kPa, x2 = 0.2648	29.945 ± 0.02
370 K, 639.98 kPa, x2 = 0.7809	16.884 ± 0.012
370 K, 786.9 kPa, x2 = 0.5155	29.815 ± 0.019
370 K, 837.7 kPa, x2 = 0.2648	41.314 ± 0.026
370 K, 869.16 kPa, x2 = 0.7809	23.293 ± 0.015
370 K, 1058.9 kPa, x2 = 0.5155	41.133 ± 0.025
370 K, 1116.3 kPa, x2 = 0.2648	56.999 ± 0.034
370 K, 1172.8 kPa, x2 = 0.7809	32.136 ± 0.021
370 K, 1411 kPa, x2 = 0.5155	56.746 ± 0.034
370 K, 1467.3 kPa, x2 = 0.2648	78.639 ± 0.046
370 K, 1569.4 kPa, x2 = 0.7809	44.294 ± 0.028
370 K, 1854.7 kPa, x2 = 0.5155	78.287 ± 0.046
370 K, 1891.2 kPa, x2 = 0.2648	108.495 ± 0.063
370 K, 2076.9 kPa, x2 = 0.7809	61.109 ± 0.038
370 K, 2371.1 kPa, x2 = 0.2648	149.686 ± 0.087
370 K, 2392.6 kPa, x2 = 0.5155	108.005 ± 0.064
370 K, 2705.2 kPa, x2 = 0.7809	84.308 ± 0.057
370 K, 2859.2 kPa, x2 = 0.2648	206.516 ± 0.12
370 K, 3006.5 kPa, x2 = 0.5155	149.004 ± 0.086
390 K, 190.02 kPa, x2 = 0.2648	8.257 ± 0.01
390 K, 240.4 kPa, x2 = 0.5155	8.222 ± 0.009
390 K, 260.65 kPa, x2 = 0.2648	11.392 ± 0.011
390 K, 264.02 kPa, x2 = 0.7809	6.423 ± 0.007
390 K, 329.74 kPa, x2 = 0.5155	11.344 ± 0.01
390 K, 356.74 kPa, x2 = 0.2648	15.716 ± 0.013
390 K, 362.31 kPa, x2 = 0.7809	8.862 ± 0.008
390 K, 451.27 kPa, x2 = 0.5155	15.65 ± 0.012
390 K, 486.71 kPa, x2 = 0.2648	21.683 ± 0.016
390 K, 496.17 kPa, x2 = 0.7809	12.226 ± 0.009
390 K, 615.63 kPa, x2 = 0.5155	21.59 ± 0.015
390 K, 661.34 kPa, x2 = 0.2648	29.916 ± 0.02
390 K, 677.89 kPa, x2 = 0.7809	16.867 ± 0.012
390 K, 836.32 kPa, x2 = 0.5155	29.786 ± 0.019
390 K, 893.34 kPa, x2 = 0.2648	41.274 ± 0.025
390 K, 922.76 kPa, x2 = 0.7809	23.271 ± 0.015
390 K, 1129.5 kPa, x2 = 0.5155	41.093 ± 0.025
390 K, 1196.7 kPa, x2 = 0.2648	56.943 ± 0.034
390 K, 1249.8 kPa, x2 = 0.7809	32.105 ± 0.02
390 K, 1513 kPa, x2 = 0.5155	56.692 ± 0.034
390 K, 1584.8 kPa, x2 = 0.2648	78.563 ± 0.046
390 K, 1679.1 kPa, x2 = 0.7809	44.251 ± 0.027
390 K, 2003.7 kPa, x2 = 0.5155	78.212 ± 0.047
390 K, 2065.6 kPa, x2 = 0.2648	108.39 ± 0.064
390 K, 2236.4 kPa, x2 = 0.7809	61.05 ± 0.038
390 K, 2613.6 kPa, x2 = 0.5155	107.901 ± 0.064
390 K, 2634 kPa, x2 = 0.2648	149.541 ± 0.091
390 K, 2940 kPa, x2 = 0.7809	84.226 ± 0.052
390 K, 3260.4 kPa, x2 = 0.2648	206.316 ± 0.12
390 K, 3338.4 kPa, x2 = 0.5155	148.86 ± 0.088
410 K, 105.73 kPa, x2 = 0.2648	4.333 ± 0.009
410 K, 106.47 kPa, x2 = 0.7809	2.443 ± 0.005
410 K, 133.75 kPa, x2 = 0.5155	4.316 ± 0.007
410 K, 145.48 kPa, x2 = 0.2648	5.979 ± 0.009
410 K, 146.65 kPa, x2 = 0.7809	3.371 ± 0.005
410 K, 184.04 kPa, x2 = 0.5155	5.954 ± 0.008
410 K, 199.99 kPa, x2 = 0.2648	8.248 ± 0.01
410 K, 201.86 kPa, x2 = 0.7809	4.651 ± 0.006
410 K, 253.05 kPa, x2 = 0.5155	8.214 ± 0.008
410 K, 274.54 kPa, x2 = 0.2648	11.38 ± 0.011
410 K, 277.79 kPa, x2 = 0.7809	6.417 ± 0.006
410 K, 347.32 kPa, x2 = 0.5155	11.332 ± 0.01
410 K, 376.14 kPa, x2 = 0.2648	15.701 ± 0.013
410 K, 381.49 kPa, x2 = 0.7809	8.853 ± 0.008
410 K, 475.89 kPa, x2 = 0.5155	15.634 ± 0.012
410 K, 513.94 kPa, x2 = 0.2648	21.661 ± 0.015
410 K, 522.95 kPa, x2 = 0.7809	12.214 ± 0.009
410 K, 650.2 kPa, x2 = 0.5155	21.568 ± 0.014
410 K, 699.84 kPa, x2 = 0.2648	29.885 ± 0.019
410 K, 715.45 kPa, x2 = 0.7809	16.85 ± 0.012
410 K, 885.1 kPa, x2 = 0.5155	29.756 ± 0.019
410 K, 948.18 kPa, x2 = 0.2648	41.232 ± 0.025
410 K, 975.71 kPa, x2 = 0.7809	23.247 ± 0.015
410 K, 1199.1 kPa, x2 = 0.5155	41.051 ± 0.025
410 K, 1275.5 kPa, x2 = 0.2648	56.886 ± 0.033
410 K, 1325.1 kPa, x2 = 0.7809	32.073 ± 0.02
410 K, 1613 kPa, x2 = 0.5155	56.634 ± 0.033
410 K, 1699.6 kPa, x2 = 0.2648	78.483 ± 0.045
410 K, 1786.7 kPa, x2 = 0.7809	44.206 ± 0.027
410 K, 2149.2 kPa, x2 = 0.5155	78.132 ± 0.045
410 K, 2235 kPa, x2 = 0.2648	108.28 ± 0.061
410 K, 2392.4 kPa, x2 = 0.7809	60.988 ± 0.037
410 K, 2828 kPa, x2 = 0.5155	107.791 ± 0.062
410 K, 2887.1 kPa, x2 = 0.2648	149.389 ± 0.085
410 K, 3168.3 kPa, x2 = 0.7809	84.141 ± 0.051
410 K, 3641.6 kPa, x2 = 0.2648	206.107 ± 0.12
410 K, 3658.2 kPa, x2 = 0.5155	148.709 ± 0.087
